# Results as given in US20120121691A1, “Method for Increasing the Production of a Specific ACYL-Chain Dihydroceramide(s) for Improving the Effectiveness of Cancer Treatments” (priority 2010, published 2012).
# How the values were obtained:
# [1] = system: intracellular sphingolipids, COG-LL-317; assay: LC/MS/MS analysis of intracellular sphingolipids, COG-LL-317; format: cell-based, human; details: for increase in corresponding dihydroceramide over sphinganine+GT-11 alone: COG-LL-317, fatty acid with sphinganine+GT-11, six hours, P<0.05
# Description: LC/MS/MS analysis of intracellular sphingolipids. Sphingolipids were separated using an Agilent 1200 HPLC (LC) and determined by ESI/MS/MS performed on a AB SCIEX 4000 QTRAP Hybrid Triple Quadrupole/Linear Ion Trap mass spectrometer (MS), operating in a multiple reaction monitoring positive ionization mode as described previously with moderate modifications (25). Briefly, 50 μL of a solution (1 μM) of internal sphingolipid standards (including -sphingosine, -sphinganine, -sphingosine-1-phosphate, and -ceramide) was added to each cell pellet sample. Lipids of each sample were extracted twice with 2 mL of the ethyl acetate/isopropyl alcohol/water (60:28:12; v:v) solvent system. Supernatants were transferred to glass tubes (Kimble Chase) and evaporated under air (10 PSI) at 40° C. After reconstitution in methanol (4 mL), 1 ml of each sample was separated for the determination of lipid phosphate. Remaining sample (3 mL) was dried and used for sphingolipid quantification. For ESI/MS/MS, the dried lipid sample was dissolved in mobile phase A. Samples were injected (10 μL) and separated on a Spectra C8SR, 150×3.0 mm, 3-μm particle size column using gradient-elution (mobile phase A/B, prepared as previously described).
# Data acquisition, peak integration and analyte quantitation were performed using ABI/SCIEX Analyst 1.4.2 Software. Sphingolipid data were normalized to lipid phosphate as previously described (26). Briefly, samples were dried under air (10 PSI) and lipids were extracted using the method of Bligh and Dyer (27). Of importance for phosphate assay, only Kimble Chase disposable borosilicate tubes were used for minimal sample contamination. Organic phase was transferred to glass tubes and a known volume was separated to a new tube and dried at 80° C. Phosphate standards and dried samples were then heated with ashing buffer (water:10 N:70% [40:9:1]) at 160° C. overnight. Samples were then incubated with ammonium molybdate and ascorbic acid as previously described, and absorbance ([…]) was read using a SpectraMax.
# Cells were treated for 48 hours with Sa (0-4 μM)+/−GT-11 (0.5 μM) with or without C18:0-, C22:0- or C22:1-fatty acids. Cytotoxicity was measured using DIMSCAN, and data was normalized to control and plotted as survival fraction (y-axis). Gray and white symbols represent long and very long chain fatty acids, respectively. Gray lines encompass data used for sphingolipid correlation analysis with cytotoxicity. Datum point, mean; error bar, SEM. […]
# Cytotoxicity was measured using DIMSCAN, and data was normalized to control and plotted as survival fraction (y-axis).
# [2] = system: MCF-7 breast cancer cells; assay: DIMSCAN cytotoxicity assay, MCF-7; format: cell-based; details: MCF-7, fatty acid 5 micromolar
# Text: Cell culture. The pre-T acute lymphoblastic leukemia cell lines MOLT-4 and CCRF-CEM, small cell lung cancer cell line NCI-H146, non-small cell lung cancer cell line NCI-H1792, colon cancer cell lines LoVo and HT-29, and breast cancer cell line MCF-7, were purchased from American Type Culture Collection, Manassas, Va., and grown at 20%/5% and 5%/5%, respectively. COG-LL-317 and COG-LL-332 pre-T acute lymphoblastic leukemia cell lines were obtained from the TTUHSC Cancer Center Cell Repository and grown at 5%/5%. Cell line identities were verified by short tandem repeat analysis and mycoplasma testing was performed. Cell lines were maintained in RPMI-1640 medium supplemented with 10% fetal bovine serum (FBS, Invitrogen) in humidified, 37° C. incubators. For all experiments, ALL cell lines were seeded at […] in RPMI-1640 medium supplemented with 15% fetal bovine serum. Solid tumor cell lines were plated at 5×cells/mL in RPMI-1640 medium supplemented with 10% fetal bovine serum.
# Cytotoxicity Assay. Cytoxicity is determined using the DIMSCAN assay system (R. Proffitt et al., Cytometry 24, 204-213 (1996); T. Frgala et al., Proc. AACR, 36, 303 (1995). The system employs digital imaging microscopy to quantify viable cells, which selectively accumulate fluorescein diacetate to become brightly fluorescent. The system is capable of measuring cytotoxicity over a 4-5 log dynamic range by quenching the residual fluorescence of dead and dying cells with eosin Y and quantifying the total fluorescence of viable cells using digital thresholding. Measured fluorescence is directly proportionate to the number of viable cells. A comparison of the total fluorescence of a drug-treated cell population to the fluorescence of a similar number of untreated cells yields a survival fraction.
# In brief, 5,000 to 25,000 cells/well depending on the cell line (5,000 for solid tumor, 25,000 for ALL cell lines) were replicate plated into 60 wells of a 96-well tissue culture plate in 0.1 cc media and allowed to attach or recover overnight. […]
Structure (SMILES),"increase of C22:0-dihydroceramide compared to 4-HPR alone ([1]; COG-LL-317, fatty acid with 4-HPR 1.1 μM, six hours, P<0.001)","increase of C22:0-dihydroceramide over sphinganine+GT-11 alone ([1]; COG-LL-317, fatty acid with sphinganine 1 μM plus GT-11 0.5 μM, six hours, P<0.003)",increase in corresponding dihydroceramide over sphinganine+GT-11 alone [1],effect of fatty acid on fenretinide cytotoxicity [2]
CCCCCCCCCCCCCCCCCCCCCC(=O)O [C22:0-fatty acid],11 fold,13 fold,significant increases,increased fenretinide cytotoxicity
CCCCCCCC/C=C\CCCCCCCCCCCC(=O)O [C22:1-fatty acid],–,–,significant increases,–
